Test results published in patent US20240000736A1, “INHIBITION OF PROTEIN AMYLOID AGGREGATION USING FLUORINATED BENZENESULFONAMIDES” (Vilnius University, priority 2022, published 2024).

Work on CCCCCCCCNc1c(F)c(SCCc2ccc(C(=O)O)cc2)c(F)c(F)c1S(N)(=O)=O [MZ20-07, 4-[2-[2,3,6-Trifluoro-5-(octylamino)-4-sulfamoyl-phenyl]sulfanylethyl]benzoic acid] yielded a melting point of 69 to 71 °C.
With NS(=O)(=O)c1c(F)c(F)c(Sc2ccc(C(=O)O)cc2)c(F)c1NC1CCCCCCCCCCC1 [MZ21-02, 4-[3-(Cyclododecylamino)-2,5,6-trifluoro-4-sulfamoyl-phenyl]sulfanylbenzoic acid] the melting point was 186 to 188 °C.
Compound CCCCCCNc1c(F)c(SCCc2ccc(C(=O)O)cc2)c(F)c(F)c1S(N)(=O)=O [MZ21-06, 4-[2-[2,3,6-Trifluoro-5-(hexylamino)-4-sulfamoyl-phenyl]sulfanylethyl]benzoic acid] has a melting point of 110 to 112 °C.
With NS(=O)(=O)c1c(F)c(F)c(SCc2ccc(C(=O)O)cc2)c(F)c1NC1CCCCCCCCCCC1 [MZ21-10, 4-[[3-(Cyclododecylamino)-2,5,6-trifluoro-4-sulfamoyl-phenyl]sulfanylmethyl]benzoic acid] the melting point was 190 to 191 °C.
CCCCCCCNc1c(F)c(SCCc2ccc(C(=O)O)cc2)c(F)c(F)c1S(N)(=O)=O [MZ21-11, 4-[2-[2,3,6-Trifluoro-5-(heptylamino)-4-sulfamoyl-phenyl]sulfanylethyl]benzoic acid] showed a melting point of 66 to 68 °C.
For CCCCCCCCCNc1c(F)c(SCCc2ccc(C(=O)O)cc2)c(F)c(F)c1S(N)(=O)=O [MZ21-12, 4-[2-[2,3,6-Trifluoro-5-(nonylamino)-4-sulfamoyl-phenyl]sulfanylethyl]benzoic acid], the melting point was 66 to 67 °C.
With NS(=O)(=O)c1c(F)c(F)c(Sc2ccc(CC(=O)O)cc2)c(F)c1NC1CCCCCCCCCCC1 [MZ21-18, 2-[4-(3-(Cyclododecylamino)-2,5,6-trifluoro-4-sulfamoylphenyl)sulfanylphenyl]acetic acid] the melting point was 148 to 150 °C.
In the case of NS(=O)(=O)c1c(F)c(F)c(SCc2ccc(C(=O)O)cc2)c(F)c1NCC1CCCCCCC1 [MZ21-23, 4-[[3-(Cyclooctylmethylamino)-2,5,6-trifluoro-4-sulfamoyl-phenyl]sulfanylmethyl]benzoic acid], the melting point is reported as 157 to 158 °C.
NS(=O)(=O)c1c(F)c(F)c(SCc2ccc(C(=O)O)cc2)c(F)c1NC1CCCCCCCCC1 [MZ21-25, 4-[[3-(Cyclodecylamino)-2,5,6-trifluoro-4-sulfamoyl-phenyl]sulfanylmethyl]benzoic acid] gave a melting point of 176 °C.
Work on NS(=O)(=O)c1c(F)c(F)c(SCc2cccc(C(=O)O)c2)c(F)c1NC1CCCCCCCCCCC1 [MZ21-26, 3-[[3-(Cyclododecylamino)-2,5,6-trifluoro-4-sulfamoyl-phenyl]sulfanylmethyl]benzoic acid] yielded a melting point of 109 to 111 °C.
With CCCC(CCC)CCNc1c(F)c(SCc2ccc(C(=O)O)cc2)c(F)c(F)c1S(N)(=O)=O [MZ21-35, 4-[[2,3,6-Trifluoro-5-(3-propylhexylamino)-4-sulfamoyl-phenyl]sulfanylmethyl]benzoic acid] the melting point was 149 °C.
In the case of CCC(C)C(C)CCNc1c(F)c(SCc2ccc(C(=O)O)cc2)c(F)c(F)c1S(N)(=O)=O (stereo not drawn) [MZ21-40, 4-[[3-(3,4-Dimethylhexylamino)-2,5,6-trifluoro-4-sulfamoyl-phenyl]sulfanylmethyl]benzoic acid], the melting point is reported as 133 °C.
NS(=O)(=O)c1c(F)c(F)c(Sc2cccc(C(=O)O)c2)c(F)c1NC1CCCCCCCCCCC1 [MZ22-07, 3-[3-(Cyclododecylamino)-2,5,6-trifluoro-4-sulfamoyl-phenyl]sulfanylbenzoic acid] showed a melting point of 123 to 125 °C.
For NS(=O)(=O)c1c(F)c(F)c(Sc2ccccc2C(=O)O)c(F)c1NC1CCCCCCCCCCC1 [MZ22-10, 2-[3-(Cyclododecylamino)-2,5,6-trifluoro-4-sulfamoyl-phenyl]sulfanylbenzoic acid], the melting point was 85 °C.
NS(=O)(=O)c1c(F)c(F)c(SCCc2ccc(C(=O)O)cc2)c(F)c1NC1CCCCCCC1 [VR16-10, 4-[2-[3-(Cyclooctylamino)-2,5,6-trifluoro-4-sulfamoyl-phenyl]sulfanylethyl]benzoic acid] gave a melting point of 166 to 168 °C.
